Common to all, as to experiment: microbe, parasite or virus in culture
The test system of test [1] is Strep. zoo. 02H001. It is filed as cell-based, Streptococcus zoobacter. Conditions: brain-heart infusion agar, 37° C., anaerobic, sodium salts, separate Test Nos. 1-3; for MIC: Streptococcus.
The subject of test [2] is Staph. aureus 01A006. In kind it is cell-based, Staphlococcus aureus. Conditions: brain-heart infusion agar, 37° C., anaerobic, sodium salts, separate Test Nos. 1-3; for MIC: Staphylococcus aureus.
The subject of test [3] is Staph. aureus 01A005. It is filed as cell-based, Staphlococcus aureus. Conditions: brain-heart infusion agar, 37° C., anaerobic, sodium salts, separate Test Nos. 1-3; for MIC: Staphylococcus aureus.
The test system of test [4] is Strep. equi. 02I001. In kind it is cell-based, Streptococcus equis. The note with it: brain-heart infusion agar, 37° C., anaerobic, sodium salts, separate Test Nos. 1-3.

Values joined by “and” are separate entries in the source; they are usually repeats but may differ in a detail not shown here. Equal values may be shown once. Where a name gives a salt, the structure may show the parent alone. Read-outs that look alike come from different tables or passages of the source.

Turning to `COP(=O)(O)C1N2C(=O)C(NC(=O)COc3ccccc3)C2SC1(C)C` (centres unmarked) [6-(2-Phenoxyacetamido)-2,2-dimethyl-3-(0-methylphosphono)penam, sodium salt], the MIC was above 200 µg/mL in test [1] (Strep. zoo. 02H001, read-out: MIC (minimal inhibitory concentration)); 200 µg/mL in test [2] (Staph. aureus 01A006, read-out: MIC (minimal inhibitory concentration)); 200 µg/mL in test [3] (Staph. aureus 01A005, read-out: MIC (minimal inhibitory concentration)).
As to `CC1(C)S[C@@H]2C(NC(=O)COc3ccccc3)C(=O)N2C1P(=O)(O)O.[Na]` (some centres unmarked) [6-(2-Phenoxyacetamido)-2,2-dimethyl-3-phosphonopenam, sodium salt], the “MIC (minimal inhibitory concentration)” value in test [1] (Strep. zoo. 02H001, sodium salt) was 100 µg/mL and 200 µg/mL; in test [2] (Staph. aureus 01A006, sodium salt), above 200 µg/mL; in test [3] (Staph. aureus 01A005, sodium salt) it was above 200 µg/mL; in test [4] (Strep. equi. 02I001, sodium salt), 100 µg/mL. Moreover, the MIC in test [1] (read-out: MIC (minimal inhibitory concentration), Strep. zoo. 02H001) is above 200 µg/mL; in test [2] (01A006, read-out: MIC (minimal inhibitory concentration), Staph. aureus 01A006) it was 200 µg/mL; in test [3] (01A005, read-out: MIC (minimal inhibitory concentration), Staph. aureus 01A005) it was 200 µg/mL; in test [4] (Streptococcus equi, read-out: MIC (minimal inhibitory concentration), Strep. equi. 02I001), above 200 µg/mL.

The values above are taken from patent publication US4036846A, “3-Hydroxy and 3-acetoxy-6-triphenyl-methylaminopenams” (priority 1976, dated 1977).
